Assay [1] relates to clinical isolates of vanA-positive Enterococcus faecium. In words: MIC of vancomycin by serial dilution, isolates not named individually. It counts as cell-based. Particulars: for MIC: Enterococcus faecium. On the procedure:
Having established the important role of D-Ala in enhancing the efficacy of vancomycin against vancomycin-resistant S. coelicolor cells, next, its effect on the resistance of clinical isolates of Enterococcus faecium, which were vanA-positive strains, was assessed. MIC values were calculated by testing a serial dilution of vancomycin in the presence or absence of D-Ala in triplicate (Table 3).
The MIC was determined by measurement of the OD600 or by visual assessment, following the Clinical Laboratory and Standards Institute (CLSI) guidelines. […] This value compares to intermediate instead of total resistance. The strains were serially diluted in a 96-well plate and growth was assayed at OD600. The steps down refer to CSLI guidelines for clinical MIC measurements.
Five vanA-positive Enterococcus faecium strains were collected in 2011 and 2014 from patients in the Erasmus University Medical Centre, Rotterdam, The Netherlands. Presence of the vanA gene was confirmed by real-time PCR with the LIGHTCYCLER® 480 instrument (Roche Diagnostics, Almere, The Netherlands) with the primers vanA F1 and vanA R1, and the vanA probe. The resistance profile of these isolates was determined as MIC values using the VITEK II (BioMerieux) system AST-P586. To determine the MIC of vancomycin against E. faecium, cells were grown overnight on Trypticase Soy Agar (TSA) blood agar plates (Becton Dickinson, Breda, The Netherlands) and suspended in 0.9% NaCl until OD600 0.5 (±0.05). Of this suspension, 10 μl was dispensed into wells of sterile flat-bottom 96-well polystyrene tissue culture plates (Greiner Bio-One, Alphen aan Den Rijn, The Netherlands) containing serial dilutions of vancomycin in 190 μl of a 1:1 mixture of Fetal Bovine Serum (FBS) (Gibco, Bleiswijk, The Netherlands) and Iscove's Modified Dulbecco's Medium (IMDM) (without phenolred, Gibco, Bleiswijk, The Netherlands), and in the presence or absence of 50 mM D-alanine (Alfa Aesar, Ward Hill, Mass., USA). Plates were incubated for 18-24 hours at 37° C. and MIC values determined visually following the CLSI guidelines, or by spectrophotometer at 600 nm.

The next assay concerns S. coelicolor LAG2. The assay is described as follows: LC-MS analysis of peptidoglycan precursors, including time course after alanine addition. It counts as cell-based, Streptomyces coelicolor. On the procedure: In order to get more insights into the synthesis of vancomycin-sensitive (i.e., wild-type) or the alternate vancomycin-resistant peptidoglycan, the pool of peptidoglycan precursors was analyzed by Liquid Chromatography coupled to Mass Spectrometry (LC-MS). When cells produce wild-type PG, only the MurNac-pentapeptide with a D-Ala-D-Ala terminus are detected, while vancomycin-resistant PG precursors have a D-Ala-D-Lac terminus. To analyze the precursors produced in S. coelicolor M145 and its mutant derivatives LAG1 (Δddl) and LAG2 (Δddl vanS::IS466A) in the presence or absence of vancomycin, the strains were grown until exponential phase, after which the cultures were harvested, washed and the precursors extracted with 5% TCA. The supernatants were desalted, concentrated and analyzed by LC-MS (see Materials and Methods section).
To investigate what the effect would be of the addition of excess of D-Ala on the accumulation of wild-type precursors, a time-course experiment was performed to follow the effect of D-Ala addition on the ratio between wild-type and resistant precursors. Therefore, 300 ml liquid-grown NMMP cultures were supplemented with either D-Ala or L-Ala (control) at 50 mM end concentration, and 10 ml samples were collected prior to and 1, 5, 15, 30, 60, 120 and 180 minutes after the addition of either alanine stereoisomer. Samples were immediately filtered by vacuum filtration, washed in 0.9% NaCl, biomass scraped off the filter, added to a tube containing 5% TCA and samples prepared as described above. […] However, addition of 50 mM D-Ala triggered the production of small amounts of wt precursor (1%) within 1 minute. After 15 minutes, this amount had increased to 4%, which appeared to be close to the maximum, with levels of wt precursors never exceeding 5%.
For the precursor isolation and identification, a modification of the method described previously by Hong and colleagues (Hong et al., 2004) was used. 10 μg vancomycin was added to the strains at the moment of inoculation. The strains were grown in NMMP (1% (w/v) Mannitol, 50 mM MgCl2) until mid-log phase (OD-0.3-0.4) and mycelia were harvested by centrifugation at 4° C. and washed in 0.9% NaCl. The mycelium was extracted with 5% cold trichloric acid (TCA) for 30 minutes at 4° C. This was centrifuged and the supernatant desalted on a Sephadex G-25 column (Illustra NAP-10 Columns, GE Healthcare, Pittsburgh), and concentrated by rotary evaporation. The concentrated precursors were dissolved in HPLC-grade water and separated by LC-MS using a gradient of 0-20% acetonitrile in water with 0.1% TFA. The elution was monitored at 254 nm and monitored by the sizes eluted (1193.8-1195.3).
For the measurement over time, the protocol was adjusted in the following way: 300 ml NMMP cultures were grown until exponential phase, at which point a 10 ml sample was taken (sample t=0) and 50 mM of D-Ala or L-Ala was added, followed by further sampling after 1, 5, 15, 30, 60, 120 and 180 minutes. Samples were rapidly filtered with a vacuum pump and washed with 0.9% (w/v) NaCl, mycelia scraped off the filter and transferred to 5% TCA.

In general, MIC refers to the smallest concentration in the dilution series that meets the test's criterion for growth inhibition. For the molecule `CN[C@H](CC(C)C)C(=O)N[C@H]1C(=O)N[C@@H](CC(N)=O)C(=O)N[C@H]2C(=O)N[C@H]3C(=O)N[C@H](C(=O)N[C@H](C(=O)O)c4cc(O)cc(O)c4-c4cc3ccc4O)[C@H](O)c3ccc(c(Cl)c3)Oc3cc2cc(c3O[C@@H]2O[C@H](CO)[C@@H](O)[C@H](O)[C@H]2O[C@H]2C[C@](C)(N)[C@H](O)[C@H](C)O2)Oc2ccc(cc2Cl)[C@H]1O` [vancomycin], in assay [1] (worst cases, 50 mM D-Ala), the MIC is 256 µg/mL and the MIC of vancomycin worked out at 128 µg/mL. Further, in assay [1] (worst cases, without D-Ala), the MIC amounted to 4100 µg/mL. In addition, in assay [1] (all clinical isolates, 50 mM D-Ala), the “reduction of MIC of vancomycin in dilution steps” value is 4-7 dilution steps. Besides, the “precursors terminated with D-Ala-D-Lac” value in the assay on S. coelicolor LAG2 (LAG2 grown with vancomycin) stood at 99.8%. Besides, the “wild-type (vancomycin-sensitive) peptidoglycan” value in the assay on S. coelicolor LAG2 (LAG2 with vancomycin (FIG. 3B)) was “less than 1%”.

The record behind these values is patent US20190000789A1, “COMPOSITION AND METHOD FOR TREATING INFECTIONS CAUSED BY VANCOMYCIN-RESISTANT INFECTIOUS AGENTS IN A SUBJECT” (priority 2015, published 2019).
